Holding throughout (experiment): biochemical
One assay addresses DAPK3 (Homo sapiens, UniProt O43293). On the set-up: DiscoverX kinase panel, active-site competition binding (KINOMEscan type), percent of control at one concentration. Conditions: competition binding, percent of control.
In another assay the target is EPHB2 (Homo sapiens, UniProt P29323). The arrangement: DiscoverX kinase panel, active-site competition binding (KINOMEscan type), percent of control at one concentration. The following applies: competition binding, percent of control.
In a further assay the target is ERN1 (Homo sapiens, UniProt O75460). The arrangement: DiscoverX kinase panel, active-site competition binding (KINOMEscan type), percent of control at one concentration. Conditions: competition binding, percent of control.
The target of assay [1] is T1, JAK1(JH1domain-catalytic) (Homo sapiens, UniProt P23458).
T1 construct: JH1domain-catalytic
On the set-up: DiscoverX kinase panel, active-site competition binding (KINOMEscan type), percent of control at one concentration. Conditions: competition binding, percent of control.

Assay [2] has as its target T2, RSK3(Kin.Dom.1-N-terminal) (Homo sapiens, UniProt Q15349).
T2 construct: gene RPS6KA2; Kin.Dom.1-N-terminal
The arrangement: DiscoverX kinase panel, active-site competition binding (KINOMEscan type), percent of control at one concentration. The following applies: competition binding, percent of control.

For another assay, the target named is TXK (Homo sapiens, UniProt P42681). The arrangement: DiscoverX kinase panel, active-site competition binding (KINOMEscan type), percent of control at one concentration. The following applies: competition binding, percent of control.
The target of a further assay is DYRK1B (Homo sapiens, UniProt Q9Y463). The arrangement: DiscoverX kinase panel, active-site competition binding (KINOMEscan type), percent of control at one concentration. Conditions: competition binding, percent of control. From the text:
(§1) To investigate the potential therapeutic benefit of inhibiting RIP1, we developed GNE684 or (S)-N-((S)-7-methoxy-1-methyl-2-oxo-2,3,4,5-tetrahydro-1H-pyrido[3,4-b]azepin-3-yl)-5-phenyl-6,7-dihydro-5H-pyrrolo[1,2-b][1,2,4]triazole-2-carboxamide with cross-species potency against RIP1, exquisite kinase selectivity, and favorable pharmacological properties (Fig. 1a–h, S1, Tables S1 and S2, SI file 1). […] (Fig. 1b, S1, and Table S1). […] GNE684 inhibited human RIP1 potently in vitro, and mouse and rat RIP1 with slightly less potency (Fig. 1d). Accordingly, it inhibited TNF-induced necroptosis in human HT-29, mouse L929, or rat H9c2 cells (Fig. 1e). The cellular potency of GNE684 was confirmed in a human whole blood assay using TBZ ([compound left out], IAP antagonist BV6, and pan-caspase inhibitor zVAD) or LZ (LPS plus zVAD) to trigger necroptosis and the release of IL-1α and IL-1β (Fig. 1f).

The next assay concerns the target LTK (Homo sapiens, UniProt P29376). On the set-up: DiscoverX kinase panel, active-site competition binding (KINOMEscan type), percent of control at one concentration. Conditions: competition binding, percent of control.
Text: as §1

Assay [3] addresses T3, STK33 (Homo sapiens, UniProt Q9BYT3). On the set-up: DiscoverX kinase panel, active-site competition binding (KINOMEscan type), percent of control at one concentration. The following applies: competition binding, percent of control.
Text: as §1

The target of a further assay is AKT2 (Homo sapiens, UniProt P31751). The arrangement: Thermo Fisher SelectScreen kinase panel: Z'-LYTE and Adapta activity, LanthaScreen binding. Here is the method: (§2) 5 88 GNE684 was tested in Thermo Fisher Scientific SelectScreen assay (Madison, WI) 89 against 221 representative kinases at a concentration of 10 µM, which is 476-fold greater than the Ki app 90 for GNE684 against human RIP1 in the RIP1 enzyme 91 assay. The kinase assays were carried out using Z'-LYTE and Adapta activity and 92 LanthaScreen binding assays (Thermo Fisher Scientific, Madison WI) following 93 protocols developed and performed by Thermo Fisher Scientific 94 (https://www.thermofisher.com/us/en/home/products-and-services/services/custom-95 services/screening-and-profiling-services/selectscreen-profiling-service/selectscreen-96 kinase-profiling-service.html). 97 GNE684 was also tested against 468 kinases in the KINOMEscan scanMAX kinase 98 binding assay panel at a concentration of 10 µM following protocols developed and 99 performed by DiscoverX (http://www.discoverx.com/kinase_profiling).

In the next assay the target is EGFR (Homo sapiens, UniProt P00533). On the set-up: Thermo Fisher SelectScreen kinase panel: Z'-LYTE and Adapta activity, LanthaScreen binding. Here is the method:
as §2

In the next assay the target is KIT (Homo sapiens, UniProt P10721). On the set-up: Thermo Fisher SelectScreen kinase panel: Z'-LYTE and Adapta activity, LanthaScreen binding. Here is the method:
as §2

Another assay deals with MAP4K4 (Homo sapiens, UniProt O95819). On the set-up: Thermo Fisher SelectScreen kinase panel: Z'-LYTE and Adapta activity, LanthaScreen binding. Here is the method: as §2
The target in assay [4] is T3, STK33. The arrangement: Thermo Fisher SelectScreen kinase panel: Z'-LYTE and Adapta activity, LanthaScreen binding. Here is the method:
as §2

The next assay addresses TNK2 (Homo sapiens, UniProt Q07912). On the set-up: Thermo Fisher SelectScreen kinase panel: Z'-LYTE and Adapta activity, LanthaScreen binding. How it is done: as §2

This is an account of results in PMC7206119, “RIP1 inhibition blocks inflammatory diseases but not tumor growth or metastases” (Cell Death and Differentiation, 2019).

T3 sequence (Q9BYT3 whole entry): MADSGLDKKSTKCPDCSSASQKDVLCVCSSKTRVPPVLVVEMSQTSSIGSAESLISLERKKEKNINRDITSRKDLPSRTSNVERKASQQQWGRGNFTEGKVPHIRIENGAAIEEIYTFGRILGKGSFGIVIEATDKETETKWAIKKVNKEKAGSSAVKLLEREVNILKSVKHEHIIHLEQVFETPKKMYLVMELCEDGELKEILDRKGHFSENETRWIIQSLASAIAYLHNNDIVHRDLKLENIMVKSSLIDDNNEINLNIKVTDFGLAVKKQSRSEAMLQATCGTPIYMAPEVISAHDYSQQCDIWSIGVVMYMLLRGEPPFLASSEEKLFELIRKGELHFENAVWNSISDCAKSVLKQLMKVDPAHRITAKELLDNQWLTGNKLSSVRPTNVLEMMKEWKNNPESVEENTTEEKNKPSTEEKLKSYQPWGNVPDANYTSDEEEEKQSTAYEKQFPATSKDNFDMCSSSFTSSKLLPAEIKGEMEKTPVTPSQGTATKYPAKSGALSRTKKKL
Sequence of TXK (P42681 whole entry): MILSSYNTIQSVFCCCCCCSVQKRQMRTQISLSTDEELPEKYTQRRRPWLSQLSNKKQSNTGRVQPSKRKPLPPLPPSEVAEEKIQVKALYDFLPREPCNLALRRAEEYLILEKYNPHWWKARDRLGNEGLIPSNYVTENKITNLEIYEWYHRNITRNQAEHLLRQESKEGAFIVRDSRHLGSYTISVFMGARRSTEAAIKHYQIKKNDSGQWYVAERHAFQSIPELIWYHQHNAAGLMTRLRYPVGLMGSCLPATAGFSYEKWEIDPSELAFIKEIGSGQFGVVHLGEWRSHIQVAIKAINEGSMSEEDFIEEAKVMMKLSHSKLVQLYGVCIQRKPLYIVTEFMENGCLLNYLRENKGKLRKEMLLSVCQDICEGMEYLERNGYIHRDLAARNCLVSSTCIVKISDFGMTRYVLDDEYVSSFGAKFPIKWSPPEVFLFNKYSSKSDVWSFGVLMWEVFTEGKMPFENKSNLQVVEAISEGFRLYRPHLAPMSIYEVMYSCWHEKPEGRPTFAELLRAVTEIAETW
Sequence of EGFR (P00533 whole entry): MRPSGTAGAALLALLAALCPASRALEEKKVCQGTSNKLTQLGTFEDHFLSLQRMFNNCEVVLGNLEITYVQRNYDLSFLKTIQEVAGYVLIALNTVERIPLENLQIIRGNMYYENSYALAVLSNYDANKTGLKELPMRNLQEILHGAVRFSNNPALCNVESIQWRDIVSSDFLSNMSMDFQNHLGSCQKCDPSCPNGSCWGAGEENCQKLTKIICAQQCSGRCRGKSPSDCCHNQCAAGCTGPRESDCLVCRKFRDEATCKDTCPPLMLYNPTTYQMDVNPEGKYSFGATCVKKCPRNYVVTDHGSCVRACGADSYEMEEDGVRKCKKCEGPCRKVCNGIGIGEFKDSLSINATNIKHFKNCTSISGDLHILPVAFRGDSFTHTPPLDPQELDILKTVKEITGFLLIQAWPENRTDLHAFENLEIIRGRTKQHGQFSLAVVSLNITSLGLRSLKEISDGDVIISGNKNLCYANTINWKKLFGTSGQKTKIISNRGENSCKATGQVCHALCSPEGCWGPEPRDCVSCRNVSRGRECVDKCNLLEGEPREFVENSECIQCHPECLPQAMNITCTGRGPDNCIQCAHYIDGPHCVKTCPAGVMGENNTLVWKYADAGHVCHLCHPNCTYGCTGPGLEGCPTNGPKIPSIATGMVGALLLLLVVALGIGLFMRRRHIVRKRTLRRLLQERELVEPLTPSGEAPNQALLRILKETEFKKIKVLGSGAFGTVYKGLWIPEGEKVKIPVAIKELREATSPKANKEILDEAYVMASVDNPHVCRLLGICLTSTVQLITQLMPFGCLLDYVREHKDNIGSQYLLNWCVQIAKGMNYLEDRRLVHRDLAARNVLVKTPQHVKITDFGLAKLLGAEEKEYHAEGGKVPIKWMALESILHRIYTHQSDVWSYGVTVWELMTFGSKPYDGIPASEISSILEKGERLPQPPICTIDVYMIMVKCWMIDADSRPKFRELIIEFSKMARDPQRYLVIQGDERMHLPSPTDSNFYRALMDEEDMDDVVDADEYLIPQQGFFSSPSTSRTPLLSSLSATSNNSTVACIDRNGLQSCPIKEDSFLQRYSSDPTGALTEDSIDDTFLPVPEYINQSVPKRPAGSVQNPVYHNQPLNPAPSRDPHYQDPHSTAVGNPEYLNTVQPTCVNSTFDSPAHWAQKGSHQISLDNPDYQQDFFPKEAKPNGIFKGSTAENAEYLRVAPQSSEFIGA
Sequence of AKT2 (P31751 whole entry): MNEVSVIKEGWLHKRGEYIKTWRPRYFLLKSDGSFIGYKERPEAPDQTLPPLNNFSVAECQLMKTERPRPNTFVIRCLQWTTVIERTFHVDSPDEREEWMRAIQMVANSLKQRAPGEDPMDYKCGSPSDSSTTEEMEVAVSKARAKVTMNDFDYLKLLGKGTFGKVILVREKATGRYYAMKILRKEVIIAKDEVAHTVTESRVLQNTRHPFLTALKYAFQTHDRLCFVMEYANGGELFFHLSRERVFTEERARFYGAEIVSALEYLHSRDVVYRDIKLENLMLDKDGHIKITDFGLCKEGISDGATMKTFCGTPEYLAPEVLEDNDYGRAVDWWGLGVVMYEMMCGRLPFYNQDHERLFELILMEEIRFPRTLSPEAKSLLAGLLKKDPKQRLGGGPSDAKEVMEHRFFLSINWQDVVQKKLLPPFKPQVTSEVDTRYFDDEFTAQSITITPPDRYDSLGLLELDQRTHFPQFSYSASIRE
Sequence of DAPK3 (O43293 whole entry): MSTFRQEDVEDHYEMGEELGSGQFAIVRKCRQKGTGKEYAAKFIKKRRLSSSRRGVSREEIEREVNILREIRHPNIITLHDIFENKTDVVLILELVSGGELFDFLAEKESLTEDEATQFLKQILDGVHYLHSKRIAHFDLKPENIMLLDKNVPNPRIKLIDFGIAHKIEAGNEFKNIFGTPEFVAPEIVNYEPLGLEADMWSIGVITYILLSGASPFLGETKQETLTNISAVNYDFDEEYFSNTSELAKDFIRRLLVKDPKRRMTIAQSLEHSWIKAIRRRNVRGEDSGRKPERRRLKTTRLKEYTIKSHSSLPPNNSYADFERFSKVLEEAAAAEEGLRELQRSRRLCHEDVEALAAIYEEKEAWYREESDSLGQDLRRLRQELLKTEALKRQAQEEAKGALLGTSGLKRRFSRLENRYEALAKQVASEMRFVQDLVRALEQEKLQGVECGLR
T1 sequence (P23458 whole entry): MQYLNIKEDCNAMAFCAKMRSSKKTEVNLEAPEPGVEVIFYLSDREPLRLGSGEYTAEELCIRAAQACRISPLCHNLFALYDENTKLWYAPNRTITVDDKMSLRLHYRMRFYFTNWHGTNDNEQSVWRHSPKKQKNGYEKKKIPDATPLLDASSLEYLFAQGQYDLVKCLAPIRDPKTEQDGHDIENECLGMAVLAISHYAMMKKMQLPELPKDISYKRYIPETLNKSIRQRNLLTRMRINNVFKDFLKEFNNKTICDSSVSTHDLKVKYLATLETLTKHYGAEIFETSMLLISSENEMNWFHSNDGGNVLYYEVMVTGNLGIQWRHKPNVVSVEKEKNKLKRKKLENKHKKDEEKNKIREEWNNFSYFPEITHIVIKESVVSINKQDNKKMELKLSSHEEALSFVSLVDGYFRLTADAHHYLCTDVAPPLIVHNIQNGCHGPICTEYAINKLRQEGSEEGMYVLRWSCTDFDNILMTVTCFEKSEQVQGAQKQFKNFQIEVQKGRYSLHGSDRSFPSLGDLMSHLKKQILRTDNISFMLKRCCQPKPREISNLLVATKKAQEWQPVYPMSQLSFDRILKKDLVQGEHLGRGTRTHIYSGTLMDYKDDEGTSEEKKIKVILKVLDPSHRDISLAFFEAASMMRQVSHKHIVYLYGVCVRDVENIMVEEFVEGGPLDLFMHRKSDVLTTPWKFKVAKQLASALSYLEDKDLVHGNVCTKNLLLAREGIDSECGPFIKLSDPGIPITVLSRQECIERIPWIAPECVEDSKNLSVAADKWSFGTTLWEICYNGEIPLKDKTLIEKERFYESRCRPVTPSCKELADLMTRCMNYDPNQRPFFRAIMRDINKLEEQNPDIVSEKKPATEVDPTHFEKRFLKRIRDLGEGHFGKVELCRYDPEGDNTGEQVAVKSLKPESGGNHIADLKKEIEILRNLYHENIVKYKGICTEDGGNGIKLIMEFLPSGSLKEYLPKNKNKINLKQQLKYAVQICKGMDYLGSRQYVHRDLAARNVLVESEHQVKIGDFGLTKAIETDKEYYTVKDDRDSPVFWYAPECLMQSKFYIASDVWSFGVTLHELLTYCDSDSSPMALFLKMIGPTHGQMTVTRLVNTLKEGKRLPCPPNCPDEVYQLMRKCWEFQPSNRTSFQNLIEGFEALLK
Sequence of DYRK1B (Q9Y463 whole entry): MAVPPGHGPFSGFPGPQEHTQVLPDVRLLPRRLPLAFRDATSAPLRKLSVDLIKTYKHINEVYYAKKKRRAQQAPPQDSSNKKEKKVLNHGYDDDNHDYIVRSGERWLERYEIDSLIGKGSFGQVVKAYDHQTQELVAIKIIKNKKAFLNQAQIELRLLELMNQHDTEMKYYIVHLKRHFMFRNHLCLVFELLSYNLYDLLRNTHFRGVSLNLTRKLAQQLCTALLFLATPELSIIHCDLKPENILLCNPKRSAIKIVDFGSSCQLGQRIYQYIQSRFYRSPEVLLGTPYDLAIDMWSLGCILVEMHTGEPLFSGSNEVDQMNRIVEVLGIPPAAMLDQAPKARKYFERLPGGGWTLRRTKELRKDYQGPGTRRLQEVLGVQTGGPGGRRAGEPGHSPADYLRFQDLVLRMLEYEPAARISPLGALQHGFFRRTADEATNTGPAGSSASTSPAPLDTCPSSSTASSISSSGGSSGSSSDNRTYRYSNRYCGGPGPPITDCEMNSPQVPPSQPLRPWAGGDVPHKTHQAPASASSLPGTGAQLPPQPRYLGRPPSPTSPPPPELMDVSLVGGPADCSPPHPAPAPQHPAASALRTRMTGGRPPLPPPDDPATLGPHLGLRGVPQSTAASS

Turning to `COc1cc2c(cn1)N(C)C(=O)[C@@H](NC(=O)c1nc3n(n1)[C@H](c1ccccc1)CC3)CC2` [GNE684, (S)-N-((S)-7-methoxy-1-methyl-2-oxo-2,3,4,5-tetrahydro-1H-pyrido[3,4-b]azepin-3-yl)-5-phenyl-6,7-dihydro-5H-pyrrolo[1,2-b][1,2,4]triazole-2-carboxamide], the remaining binding at 10 µM at DAPK3 came out at 76%; on EPHB2 it was 82%; at ERN1 it was 97%; in assay [1] it was 100%; in assay [2], 92%; on TXK, 100%. Further, the figures for the remaining binding at 10 µM on DYRK1B, on LTK and on STK33 [3] were 54%, 93% and 86%, respectively. In addition, the inhibition (in general, how much of the control response was suppressed) at 10 µM at AKT2 worked out at 4.5%; at EGFR, 2.5%; on KIT, 3%; on MAP4K4, 11.5%; on STK33 [4] it was 0%; on TNK2, 2.5%.
